# Reference: US8129412B2, “Hydantoin derivatives useful as metalloproteinase inhibitors” (AstraZeneca AB, priority 2004, dated 2012)
# Target: T1, Recombinant human proMMP13 (collagenase 3) (Homo sapiens, UniProt P45452)
# T1 construct: made in house
# Test: Collagenase 3 (MMP13) enzyme inhibition assay with fluorogenic peptide substrate
# Format: biochemical
# Conditions: APMA-activated MMP13, 4-5 hours at 35° C., pH 7.5, fluorescence λex 328 nm / λem 393 nm
# Procedure: Collagenase 3 (MMP13) inhibitory activity may be assessed, for example, using the procedure set out below:—
# Activity is determined by measuring the fluorescence at λex 328 nm and λem 393 nm.
row,Compound,IC50 [nM]
1,"CC[C@]1(CS(=O)(=O)N2CCC(Oc3ccc(OCC(F)(F)F)cc3)CC2)NC(=O)NC1=O [Example 2, (5S)-5-ethyl-5-[({4-[4-(2,2,2-trifluoroethoxy)phenoxy]piperidin-1-yl}sulfonyl)methyl]imidazolidine-2,4-dione]",8.4
2,"CCC1(CS(=O)(=O)N2CCC(Oc3ccc(OC(F)(F)C(F)F)cc3)CC2)NC(=O)NC1=O (stereo not drawn) [Example 4, 5S-ethyl-5-[({4-[4-(1,1,2,2-tetrafluoroethoxy)phenoxy]piperidin-yl}sulfonyl)methyl]imidazolidine-2,4-dione]",4.9
3,"CC[C@]1(CS(=O)(=O)N2CCC(Oc3ccc(OC(F)(F)C(F)(F)F)cc3)CC2)NC(=O)NC1=O [Example 6, (5S)-5-ethyl-5-[({4-[4-(pentafluoroethoxy)phenoxy]piperidin-1-yl}sulfonyl)methyl]imidazolidine-2,4-dione]",13
4,CCC1(CS(=O)(=O)N2CCC(Oc3ccc(OCCC(F)(F)F)cc3)CC2)NC(=O)NC1=O (stereo not drawn) [Example 8],5.5
5,"CC[C@]1(CS(=O)(=O)N2CCC(Oc3ccc(OCC(F)(F)C(F)F)cc3)CC2)NC(=O)NC1=O [Example 10, (5S)-5-ethyl-5-[({4-[4-(2,2,3,3-tetrafluoropropoxy)phenoxy]-piperidin-1-yl}sulphonyl)methyl]imidazolidine-2,4-dione]",0.7
6,"CC[C@]1(CS(=O)(=O)N2CCC(Oc3ccc(OCC(F)(F)C(F)(F)F)cc3)CC2)NC(=O)NC1=O [Example 12, (5S)-5-ethyl-5-[({4-[4-(2,2,3,3,3-pentafluoropropoxy)phenoxy]-piperidin-1-yl}sulphonyl)methyl]imidazolidine-2,4-dione]",1.9
